How the values were obtained:
Experiment in all cases: combination Emax (second highest fraction inhibited in the dose matrix, 72 h); higher = more inhibition; extreme values may be limits of the assay
AM-38 (Glioblastoma) = test system: AM-38 (Glioblastoma)
Procedure, shortened: (§1)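 Bliss excess equals the observed combination effect minus the expected value EA + EB − EA·EB, where EA and EB are the effects of each agent alone. Combination Emax is the second-highest inhibition within the matrix. Inhibition was scaled from CellTiter-Glo 2.0 luminescence, with 0 set by vehicle wells and 1 by blank wells, after 72 hours of two-drug dosing of cells plated in 1536-well plates.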

[1] = test system: BxPC-3 (Pancreatic Carcinoma)
Procedure, shortened: as §1

GAK (Melanoma) = test system: GAK (Melanoma)
Procedure, shortened: as §1

[2] = test system: IA-LM (Non-Small Cell Lung Carcinoma)
Procedure, shortened: as §1

[3] = test system: KP-4 (Pancreatic Carcinoma)
Procedure, shortened: as §1

[4] = test system: LCLC-103H (Non-Small Cell Lung Carcinoma)
Procedure, shortened: as §1

[5] = test system: MDA-MB-415 (Breast Carcinoma)
Procedure, shortened: as §1

[6] = test system: MS-1 (Small Cell Lung Carcinoma)
Procedure, shortened: as §1

NB1 (Neuroblastoma) = test system: NB1 (Neuroblastoma)
Procedure, shortened: as §1

NCI-H226 (Mesothelioma) = test system: NCI-H226 (Mesothelioma)
Procedure, shortened: as §1

[7] = test system: NCI-H3118 (Head and Neck Carcinoma)
Procedure, shortened: as §1

[8] = test system: NCI-H596 (Other Solid Carcinomas)
Procedure, shortened: as §1

[9] = test system: PA-TU-8988T (Pancreatic Carcinoma)
Procedure, shortened: as §1

[10] = test system: PL4 (Pancreatic Carcinoma)
Procedure, shortened: as §1

[11] = test system: SCC-4 (Oral Cavity Carcinoma)
Procedure, shortened: as §1

[12] = test system: SKG-IIIa (Cervical Carcinoma)
Procedure, shortened: as §1

[13] = test system: SNU-423 (Hepatocellular Carcinoma)
Procedure, shortened: as §1

[14] = test system: SUP-M2 (T-Cell Non-Hodgkin's Lymphoma)
Procedure, shortened: as §1

T47D (Breast Carcinoma) = test system: T47D (Breast Carcinoma)
Procedure, shortened: as §1

UACC-257 (Melanoma) = test system: UACC-257 (Melanoma)
Procedure, shortened: as §1

Compound | combination Emax (AM-38 (Glioblastoma)) | combination Emax [1] | combination Emax (GAK (Melanoma)) | combination Emax [2] | combination Emax [3] | combination Emax [4] | combination Emax [5] | combination Emax [6] | combination Emax (NB1 (Neuroblastoma)) | combination Emax (NCI-H226 (Mesothelioma)) | combination Emax [7] | combination Emax [8] | combination Emax [9] | combination Emax [10] | combination Emax [11] | combination Emax [12] | combination Emax [13] | combination Emax [14] | combination Emax (T47D (Breast Carcinoma)) | combination Emax (UACC-257 (Melanoma))
COc1nnc2ccc(N3CCC(c4ccc(OCCN5CCN(C)C(=O)[C@H]5C)cc4)CC3)nn12 [AZD5153] + CC1(C)CCC(CN2CCN(c3ccc(C(=O)NS(=O)(=O)c4ccc(NCC5CCOCC5)c([N+](=O)[O-])c4)c(Oc4cnc5[nH]ccc5c4)c3)CC2)=C(c2ccc(Cl)cc2)C1 [Venetoclax] (first compound max 1 µM, 7x7, partner max 1 µM) | 0.232 | 0.473 | 0.478 | 0.495 | 0.526 | 0.376 | 0.409 | 0.906 | 0.232 | 0.438 | 0.568 | 0.751 | 0.664 | 0.572 | 0.389 | 0.42 | 0.41 | 0.965 | 0.483 | 0.305
Cc1c2c(nn1C)CSCc1cc(n(C)n1)CSc1cc(c3ccccc3c1)OCCCc1c(C(=O)O)n(C)c3c-2c(Cl)ccc13 [AZD5991] + CN(C)CCCOc1ccc(-c2ccc3ncc4c(c3c2)n(C2CCOCC2)c(=O)n4C)cn1 [AZD0156] (first compound max 1 µM, 7x7, partner max 1 µM) | 0.677 | 0.174 | 0.266 | 0.257 | 0.259 | 0.375 | 0.463 | 0.524 | 0.278 | 0.293 | 0.314 | 0.328 | 0.214 | 0.357 | 0.382 | 0.218 | 0.297 | 1 | 0.749 | 0.277
CC1(C)CCC(CN2CCN(c3ccc(C(=O)NS(=O)(=O)c4ccc(NCC5CCOCC5)c([N+](=O)[O-])c4)c(Oc4cnc5[nH]ccc5c4)c3)CC2)=C(c2ccc(Cl)cc2)C1 [Venetoclax] + COc1cc(Nc2ncc3c(n2)-c2ccc(Cl)cc2C(c2c(F)cccc2OC)=NC3)ccc1C(=O)O [Alisertib] (first compound max 1 µM, 7x7, partner max 10 µM) | 0.41 | 0.226 | 0.147 | 0.617 | 0.44 | 0.539 | 0.379 | 0.392 | 0.561 | 0.224 | 0.312 | 0.381 | 0.403 | 0.448 | 0.571 | 0.286 | 0.361 | 0.902 | 0.326 | 0.191
COc1cccc(OCCCN)c1-c1cc(Nc2cnc(C#N)cn2)n[nH]1 [Prexasertib] + CN(C)CCCOc1ccc(-c2ccc3ncc4c(c3c2)n(C2CCOCC2)c(=O)n4C)cn1 [AZD0156] (first compound max 1 µM, 7x7, partner max 1 µM) | 0.837 | 0.66 | 0.718 | 0.42 | 0.434 | 0.718 | 0.321 | 0.983 | 0.911 | 0.179 | 0.858 | 0.414 | 0.38 | 0.806 | 0.63 | 0.389 | 0.713 | 1 | 0.426 | 0.364
CN(CCO)CC[C@H](CSc1ccccc1)Nc1ccc(S(=O)(=O)NC(=O)c2ccc(N3CCC([C@@H](O)c4ccccc4-c4ccc(Cl)cc4)CC3)cc2)cc1S(=O)(=O)C(F)(F)F [AZD4320] + C=CCn1c(=O)c2cnc(Nc3ccc(N4CCN(C)CC4)cc3)nc2n1-c1cccc(C(C)(C)O)n1 [AZD1775] (first compound max 1 µM, partner max 1 µM) | 0.834 | 0.776 | 0.833 | 0.462 | 0.716 | 0.726 | 0.665 | 1 | 0.931 | 0.407 | 0.916 | 0.318 | 0.922 | 0.708 | 0.872 | 0.426 | 0.804 | 1 | 0.195 | 0.103
Cn1cnc2c(F)c(Nc3ccc(Br)cc3Cl)c(C(=O)NOCCO)cc21 [Selumetinib] + C=CCn1c(=O)c2cnc(Nc3ccc(N4CCN(C)CC4)cc3)nc2n1-c1cccc(C(C)(C)O)n1 [AZD1775] (first compound max 10 µM, partner max 1 µM) | 0.563 | 0.557 | 0.719 | 0.296 | 0.6 | 0.43 | 0.23 | 0.778 | 0.84 | 0.145 | 0.902 | 0.223 | 0.805 | 0.63 | 0.452 | 0.303 | 0.396 | 0.996 | 0.34 | 0.607
COc1cccc(OCCCN)c1-c1cc(Nc2cnc(C#N)cn2)n[nH]1 [Prexasertib] + C[C@@H]1COCCN1C2=NC(=NC(=C2)C3(CC3)[S@](=N)(=O)C)C4=C5C=CNC5=NC=C4 [AZD6738] (first compound max 1 µM, 7x7, partner max 10 µM) | 0.847 | 0.633 | 0.753 | 0.459 | 0.536 | 0.738 | 0.45 | 0.971 | 0.773 | 0.176 | 0.816 | 0.487 | 0.46 | 0.809 | 0.676 | 0.453 | 0.695 | 1 | 0.374 | 0.33
C[C@@H](c1ccc2nccn2c1)n1nnc2ncc(-c3cnn(C)c3)nc21 [Savolitinib] + Cc1c2c(nn1C)CSCc1cc(n(C)n1)CSc1cc(c3ccccc3c1)OCCCc1c(C(=O)O)n(C)c3c-2c(Cl)ccc13 [AZD5991] (first compound max 1 µM, 7x7, partner max 1 µM) | 0.244 | 0.136 | 0.264 | 0.268 | 0.435 | 0.211 | 0.344 | 0.26 | 0.175 | 0.131 | 0.225 | 0.197 | 0.243 | 0.189 | 0.183 | 0.176 | 0.2 | 1 | 0.23 | 0.151
Cc1nc(Nc2ncc(C(=O)Nc3c(C)cccc3Cl)s2)cc(N2CCN(CCO)CC2)n1 [Dasatinib] + CC(=O)Nc1cccc(-n2c(=O)n(C3CC3)c(=O)c3c(Nc4ccc(I)cc4F)n(C)c(=O)c(C)c32)c1 [Trametinib] (first compound max 2 µM, 7x7, partner max 1 µM) | 0.713 | 0.868 | 0.788 | 0.654 | 0.735 | 0.326 | 0.385 | 0.125 | 0.139 | 0.458 | 0.811 | 0.607 | 0.887 | 0.955 | 0.712 | 0.5 | 0.832 | 0.126 | 0.344 | 0.644
CC(=O)Nc1cccc(-n2c(=O)n(C3CC3)c(=O)c3c(Nc4ccc(I)cc4F)n(C)c(=O)c(C)c32)c1 [Trametinib] + Cc1nc(-c2cn3c(n2)-c2ccc(-c4cnn(C(C)(C)C(N)=O)c4)cc2OCC3)n(C(C)C)n1 [Taselisib] (first compound max 1 µM, 7x7, partner max 10 µM) | 0.909 | 1 | 0.985 | 0.486 | 0.694 | 0.539 | 0.848 | 0.513 | 0.995 | 0.327 | 0.966 | 0.81 | 0.762 | 0.951 | 0.992 | 0.527 | 0.827 | 0.534 | 0.643 | 0.806
Cc1cc2ncnn2cc1Nc1ncc2c(n1)n(C1CCOCC1)c(=O)n2C [AZD7648] + C[C@@H]1COCCN1C2=NC(=NC(=C2)C3(CC3)[S@](=N)(=O)C)C4=C5C=CNC5=NC=C4 [AZD6738] (first compound max 10 µM, 7x7, partner max 10 µM) | 0.758 | 0.36 | 0.578 | 0.402 | 0.44 | 0.58 | 0.515 | 0.728 | 0.775 | 0.304 | 0.647 | 0.365 | 0.378 | 0.631 | 0.575 | 0.318 | 0.524 | 0.992 | 0.464 | 0.15
CN(CCO)CC[C@H](CSc1ccccc1)Nc1ccc(S(=O)(=O)NC(=O)c2ccc(N3CCC([C@@H](O)c4ccccc4-c4ccc(Cl)cc4)CC3)cc2)cc1S(=O)(=O)C(F)(F)F [AZD4320] + C[C@@H](Nc1cc(F)cc(F)c1)c1cc(C(=O)N(C)C)cc2c(=O)cc(N3CCOCC3)oc12 [AZD8186] (first compound max 1 µM, 7x7, partner max 3 µM) | 0.905 | 0.252 | 0.312 | 0.617 | 0.273 | 0.507 | 0.909 | 0.613 | 0.651 | 0.279 | 0.39 | 0.381 | 0.437 | 0.694 | 0.765 | 0.471 | 0.547 | 0.944 | 0.439 | 0.269
